Data taken from US20060045953A1 (priority 2004, published 2006).
Like-named read-outs stand apart in the source and are kept apart here. Each block holds one molecule with its values, some of them ahead of it.

Experiments:
human subjects = assay: "Difference from Reference" human taste test (sweetness); format: in vivo
Text: To determine how the intensity of a test sample of an experimental compound differs from that of a reference sample in terms of sweetness. This type of study requires a larger panel (typically 15-20 Subjects) in order to obtain statistically significant data.
Subjects rate the difference in intensity of the test sample compared to the reference sample for the key attribute on a scale of −5 (much less sweet than the reference) to +5 (much more sweet than the reference). A score of 0 indicates the test sample is equally as sweet as the reference.
Ten or more Subjects are used for the “Difference from Reference” tests. Subjects have been previously familiarized with the key attribute taste and are trained to use the −5 to +5 scale. Subjects refrain from eating or drinking (except water) for at least 1 hour prior to the test. Subjects eat a cracker and rinse with water four times to clean the mouth.
Test solutions can include the experimental compound in water, the experimental compound plus a key tastant (e.g., 4% sucrose, 6% sucrose, 6% fructose, 6% fructose/glucose, or 7% fructose/glucose, at pH 7.1 or 2.8), and a range of key tastant only solutions as references.
Samples of the key tastant without the experimental compound are used to determine if the panel is rating accurately; i.e., the reference is tested against itself (blind) to determine how accurate the panel is rating on a given test day. The solutions are dispensed in 10 ml volumes into 1 oz. sample cups and served to the Subjects at room temperature.
Subjects first taste the reference sample then immediately taste the test sample and rate the difference in intensity of the key attribute on the Difference from Reference scale (−5 to +5). All samples are expectorated. Subjects may retaste the samples but can only use the volume of sample given. Subjects must rinse at least twice with water between pairs of samples. Eating a cracker between sample pairs may be required depending on the samples tasted.
The scores for each test are averaged across Subjects and standard error is calculated. Panel accuracy can be determined using the score from the blind reference test. ANOVA and multiple comparison tests (such as Tukey's Honestly Significant Difference test) can be used to determine differences among pairs, provided the reference sample is the same among all tests. If the identical test pair is tested in another session, a Student's t-test (paired, two-tailed; alpha=0.05) can be used to determine if there is any difference in the ratings between sessions.
A number of different reference sweeteners have been utilized for the measurement of sweet taste enhancement. […]

[1] = target: T1, hT1R2/hT1R3 sweet receptor (Homo sapiens, UniProt Q7RTX0+Q8TE23); assay: In vitro hT1R2/hT1R3 sweet taste receptor activation assay (FLIPR, dose response); format: cell-based
T1 construct: expressed in transfected cells; host or cells: HEK293 derivative stably expressing Gα15, clone S-9
T1 sequence (Q8TE23 20-839): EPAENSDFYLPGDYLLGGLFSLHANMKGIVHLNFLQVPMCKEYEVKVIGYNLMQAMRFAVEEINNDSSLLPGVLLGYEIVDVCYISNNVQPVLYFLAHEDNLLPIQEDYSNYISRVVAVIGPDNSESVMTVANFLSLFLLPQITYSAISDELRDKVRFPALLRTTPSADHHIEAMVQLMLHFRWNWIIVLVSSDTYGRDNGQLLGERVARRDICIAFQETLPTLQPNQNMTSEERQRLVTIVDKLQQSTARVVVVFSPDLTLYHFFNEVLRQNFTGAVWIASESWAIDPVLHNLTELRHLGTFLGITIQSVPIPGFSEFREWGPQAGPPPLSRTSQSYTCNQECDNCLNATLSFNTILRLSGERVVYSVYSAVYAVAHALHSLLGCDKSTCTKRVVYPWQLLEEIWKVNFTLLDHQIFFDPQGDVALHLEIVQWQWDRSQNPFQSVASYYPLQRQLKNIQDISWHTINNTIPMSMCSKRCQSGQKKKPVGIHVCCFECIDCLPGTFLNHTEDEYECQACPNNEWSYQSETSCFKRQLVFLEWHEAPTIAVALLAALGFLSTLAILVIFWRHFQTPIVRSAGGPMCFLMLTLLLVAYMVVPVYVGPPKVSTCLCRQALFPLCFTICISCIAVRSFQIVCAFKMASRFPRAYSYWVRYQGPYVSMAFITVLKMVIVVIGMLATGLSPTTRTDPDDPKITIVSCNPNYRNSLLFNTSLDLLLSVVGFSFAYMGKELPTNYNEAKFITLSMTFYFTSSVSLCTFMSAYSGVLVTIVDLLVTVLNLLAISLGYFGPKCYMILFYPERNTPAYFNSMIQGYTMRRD
T1 sequence (Q7RTX0 21-852): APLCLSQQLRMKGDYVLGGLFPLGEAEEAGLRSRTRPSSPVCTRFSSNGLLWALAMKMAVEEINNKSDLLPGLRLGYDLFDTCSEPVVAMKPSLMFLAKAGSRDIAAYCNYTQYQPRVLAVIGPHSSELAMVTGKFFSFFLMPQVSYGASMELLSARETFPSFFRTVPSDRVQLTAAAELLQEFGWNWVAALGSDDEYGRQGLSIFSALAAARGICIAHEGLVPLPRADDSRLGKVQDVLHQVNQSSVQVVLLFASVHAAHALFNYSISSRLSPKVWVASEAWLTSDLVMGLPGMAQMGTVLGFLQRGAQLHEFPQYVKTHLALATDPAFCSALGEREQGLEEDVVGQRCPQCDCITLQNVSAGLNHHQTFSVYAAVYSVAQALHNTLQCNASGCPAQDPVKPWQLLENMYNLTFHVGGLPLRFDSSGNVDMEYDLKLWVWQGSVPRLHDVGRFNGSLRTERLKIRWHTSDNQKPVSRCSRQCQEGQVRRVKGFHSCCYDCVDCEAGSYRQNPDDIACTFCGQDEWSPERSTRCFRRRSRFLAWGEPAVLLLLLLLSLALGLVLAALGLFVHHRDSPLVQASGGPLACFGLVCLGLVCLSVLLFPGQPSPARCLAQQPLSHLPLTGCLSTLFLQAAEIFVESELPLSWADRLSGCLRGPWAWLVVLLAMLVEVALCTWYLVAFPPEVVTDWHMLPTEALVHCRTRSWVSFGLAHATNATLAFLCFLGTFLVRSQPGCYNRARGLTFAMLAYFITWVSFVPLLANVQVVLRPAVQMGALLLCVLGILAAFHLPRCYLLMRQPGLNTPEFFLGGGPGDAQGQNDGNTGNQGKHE
How it was run: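 Dose-response at 10 concentrations (60 nM–30 µM, duplicates) measured as Fluo-3AM calcium fluorescence on FLIPR in hT1R2/hT1R3 S-9 cells, in D-PBS at room temperature. Responses scaled to 400 mM D-fructose. EC50s from regression with all curve parameters floating.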

[2] = target: T2, hT1R1/hT1R3 umami receptor (Homo sapiens, UniProt Q7RTX0+Q7RTX1); assay: Umami taste enhancement assay: shift of the MSG EC50 (EC50 ratio vs. MSG); format: cell-based; details: Table E
T2 construct: expressed in transfected cells; host or cells: HEK293 derivative stably expressing Gα15, clone I-17, expression induced with mifepristone
T2 sequence (Q7RTX1 21-841): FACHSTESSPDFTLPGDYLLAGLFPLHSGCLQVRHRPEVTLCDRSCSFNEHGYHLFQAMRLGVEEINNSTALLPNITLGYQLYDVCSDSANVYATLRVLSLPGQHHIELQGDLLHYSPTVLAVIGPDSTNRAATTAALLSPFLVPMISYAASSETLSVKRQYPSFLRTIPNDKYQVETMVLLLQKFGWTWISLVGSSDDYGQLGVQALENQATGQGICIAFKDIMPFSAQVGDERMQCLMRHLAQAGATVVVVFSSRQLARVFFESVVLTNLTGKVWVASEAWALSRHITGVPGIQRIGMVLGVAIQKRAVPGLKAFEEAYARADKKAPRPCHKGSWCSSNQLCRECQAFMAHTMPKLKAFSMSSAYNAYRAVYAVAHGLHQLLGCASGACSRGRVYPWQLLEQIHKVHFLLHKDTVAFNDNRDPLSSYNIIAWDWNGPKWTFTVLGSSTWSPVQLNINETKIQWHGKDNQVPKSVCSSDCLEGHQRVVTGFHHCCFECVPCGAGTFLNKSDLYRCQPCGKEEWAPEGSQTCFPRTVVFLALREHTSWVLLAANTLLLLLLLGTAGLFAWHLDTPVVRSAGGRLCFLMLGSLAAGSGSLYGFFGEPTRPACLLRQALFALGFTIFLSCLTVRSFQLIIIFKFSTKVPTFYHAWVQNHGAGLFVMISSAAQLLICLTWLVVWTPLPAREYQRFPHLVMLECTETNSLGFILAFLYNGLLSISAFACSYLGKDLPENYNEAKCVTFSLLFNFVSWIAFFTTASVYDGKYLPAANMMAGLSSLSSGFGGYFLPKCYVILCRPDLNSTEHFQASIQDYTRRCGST
T2 sequence (Q7RTX0 21-852): T1 sequence (Q7RTX0 21-852)
Method: A series of measurements of the dose response is run in solutions comprising MSG alone, then a second dose response is run with MSG in combination with predetermined amounts of a candidate compound of Formula (I) at the same time.
Typical compound concentrations tested were 30 μM, 10 μM, 3 μM, 1 μM, 0.3 μM, 0.1 μM and 0.03 μM. The relative efficacy of compounds of Formula (I) at enhancing the receptor was determined by calculating the magnitude of a shift in the EC50 for monosodium glutamate. Enhancement was defined as a ratio (EC50R) corresponding to the EC50 of monosodium glutamate, determined in the absence of the test compound, divided by the EC50 of monosodium glutamate, determined in the presence of the test compound.
Stated alternatively, “EC50 ratio” as compared to MSG is calculated based on the following definitions: EC50 Ratio vs. MSG=EC50 (MSG)/EC50 (MSG+[Compound]) • wherein “[compound]” refers to the concentration of the compound of Formula (I) used to elicit (or enhance or potentiate) the MSG dose response.

[3] = read-out: EC50 for activation of a hT1R2/hT1R3 sweet receptor expressed in an HEK293 cell line

- EC50 [1, 3]: 5800 nM
SMILES: Cc1nocc1C(=O)N[C@@H]1CCCc2ccccc21 [Example 175, 3-Methyl-isoxazole-4-carboxylic acid (1,2,3,4-tetrahydro-naphthalen-1-yl)-amide]
- Perceived Equivalent Sweet Solution (human subjects; 50 μM compound + 4% sucrose, pH not measured or controlled): 6% sucrose

- melting point: 124 to 125 °C
- EC50 [1, 3]: 520 nM
SMILES: Cc1cc(C)c2c(c1)[C@H](NC(=O)c1conc1C)CCC2 [Example 176, (R)—N—(5,7-Dimethyl-1,2,3,4-tetrahydronaphthalen-1-yl)-3-methylisoxazole-4-carboxamide]
- Perceived Equivalent Sweet Solution (human subjects; 10 μM compound + 7% fructose/glucose, pH 2.8): Equal to 10.5% fructose/glucose
- Perceived Equivalent Sweet Solution (human subjects; 10 μM compound + 7% fructose/glucose, pH 7.1): Equal to 10% fructose/glucose

- melting point: 175 to 176 °C
- EC50 [1, 3]: 180 nM
SMILES: COc1cccc2c1CCC[C@H]2NC(=O)c1cccc(Cl)c1O [Example 177, (R)-3-Chloro-2-hydroxy-N-(5-methoxy-1,2,3,4-tetrahydronaphthalen-1-yl) benzamide]
- Perceived Equivalent Sweet Solution (human subjects; 3 μM compound + 6% fructose/glucose, pH 7.1): Equal to 10% fructose/glucose

- EC50 ([1]; Table E, Sweet Enhancer Amides, read-out: Sweet EC50): 950 nM
- Umami EC50 ratio [2]: 2.81 (10 M cpd)
SMILES: O=C(N[C@@H]1CCc2ccccc21)c1cccc(Cl)c1O [Example E127, (R)-3-chloro-N-(2,3-dihydro-1H-inden-1-yl)-2-hydroxybenzamide]
